Values of other authors as cited in patent US20120301405A1, “Simple Mechanical Procedure and Product for Deterring Substance Abuse” (priority 2005, published 2012).
Where two headings read alike, the source gives them in different places.

Assays:
benzodiazepine receptors = settings: for AED (Approximate Equivalent Dose): based on clinical experience
[1] = for Time to Peak (onset of action, in hours): maximum levels of the drug in the blood after a given dose; for Elimination ½-Life (h) [active metabolite]: value in square brackets
[2] = atypical benzodiazepine receptor ligands table

SMILES	AED (Approximate Equivalent Dose) (benzodiazepine receptors; benzodiazepine table)	Time to Peak (onset of action, in hours) [1]	Elimination ½-Life ([1]; parent drug)	other results
Cc1nnc2n1-c1ccc(Cl)cc1C(c1ccccc1)=NC2 [Alprazolam]	0.5 mg	1 to 2 h	6 to 12 h	–
CC(C)(C)OC(=O)c1ncn2c1[C@@H]1CCCN1C(=O)c1c(Br)cccc1-2 [Bretazenil]	0.5 mg	–	2.5 h	–
O=C1CN=C(c2ccccn2)c2cc(Br)ccc2N1 [Bromazepam]	5 to 6 mg	1 to 3 h	10 to 20 h	–
Cc1nnc2n1-c1sc(Br)cc1C(c1ccccc1Cl)=NC2 [Brotizolam]	0.25 mg	0.5-2^ hours	4 to 5 h	–
CNC1=Nc2ccc(Cl)cc2C(c2ccccc2)=[N+]([O-])C1 [Chlordiazepoxide]	–	–	–	elimination half-life in the elderly compared to younger individuals ([1]; elderly vs younger individuals): twice as long
N#CCCN1C(=O)C(O)N=C(c2ccccc2F)c2cc(Cl)ccc21 (centres unmarked) [Cinolazepam]	40 mg	0.5-2^ hours	9 h	–
CN1C(=O)CC(=O)N(c2ccccc2)c2cc(Cl)ccc21 [Clobazam]	–	–	–	AED (Approximate Equivalent Dose) (benzodiazepine receptors; [2]): 20 mg; Elimination ½-Life [1, 2]: 8 to 60 h
O=C1CN=C(c2ccccc2Cl)c2cc([N+](=O)[O-])ccc2N1 [Clonazepam]	0.5 mg	1 to 4 h	18 to 50 h	–
O=C(O)C1N=C(c2ccccc2)c2cc(Cl)ccc2NC1=O (centres unmarked) [Clorazepate]	15 mg	variable	36 to 100 h	–
CCc1cc2c(s1)N(C)C(=O)CN=C2c1ccccc1Cl [Clotiazepam]	5 to 10 mg	1 to 3 h	6 to 18 h	–
O=C1CN2CCOC2(c2ccccc2Cl)c2cc(Cl)ccc2N1 (centres unmarked) [Cloxazolam]	1 mg	–	–	–
O=C1CN=C(c2ccccc2Cl)c2cc(Cl)ccc2N1 [Delorazepam]	1 mg	1 to 2 h	60 to 140 h	–
CN1C(=O)CN=C(c2ccccc2)c2cc(Cl)ccc21 [Diazepam]	10 mg	1 to 1.5 h	20 to 100 h	equivalent dose in an elderly individual on lorazepam versus what would be expected in a younger individual (benzodiazepine receptors; elderly individual on lorazepam): up to half; Elimination ½-Life (h) [active metabolite] [1]: [36-200] h
Clc1ccc2c(c1)C(c1ccccc1)=NCc1nncn1-2 [Estazolam]	1 to 2 mg	1 to 5 h	10 to 24 h	–
CN1CCN(C(=O)O[C@H]2c3nccnc3C(=O)N2c2ccc(Cl)cn2)CC1 [Eszopiclone]	–	–	–	Elimination ½-Life [1, 2]: 6 h
CCc1cc2c(s1)-n1c(C)nnc1CN=C2c1ccccc1Cl [Etizolam]	1 mg	1 to 2 h	6 h	–
CCOC(=O)c1ncn2c1CN(C)C(=O)c1cc(F)ccc1-2 [Flumazenil]	–	–	–	Elimination ½-Life [1, 2]: 1 h
CN1C(=O)CN=C(c2ccccc2F)c2cc([N+](=O)[O-])ccc21 [Flunitrazepam]	1 mg	0.5-3^ hours	18 to 26 h	–
CCN(CC)CCN1C(=O)CN=C(c2ccccc2F)c2cc(Cl)ccc21 [Flurazepam]	15 to 30 mg	1 to 1.5 h	40 to 250 h	–
O=C1CN=C(c2ccccc2F)c2cc(Cl)ccc2N1CC1CC1 [Flutoprazepam]	2 to 3 mg	0.5-9^ hours	60 to 90 h	–
O=C1CN=C(c2ccccc2)c2cc(Cl)ccc2N1CC(F)(F)F [Halazepam]	20 to 40 mg	1 to 3 h	30 to 100 h	–

SMILES	AED (Approximate Equivalent Dose) (benzodiazepine receptors; benzodiazepine table)	Time to Peak (onset of action, in hours) [1]	Elimination ½-Life ([1]; parent drug)	other results
CC1=CC(=O)N2CC(=O)N(C)c3ccc(Cl)cc3C2(c2ccccc2)O1 (centres unmarked) [Ketazolam]	15 to 30 mg	2.5-3^ hours	30 to 100 h	Elimination ½-Life (h) [active metabolite] [1]: [36-200] h
CN1CCN(/C=C2\N=C3CN=C(c4ccccc4Cl)c4cc([N+](=O)[O-])ccc4N3C2=O)CC1 [Loprazolam]	1 to 2 mg	0.5-4^ hours	6 to 12 h	–
O=C1Nc2ccc(Cl)cc2C(c2ccccc2Cl)=NC1O (centres unmarked) [Lorazepam]	1 mg	2 to 4 h	10 to 20 h	–
CN1C(=O)C(O)N=C(c2ccccc2Cl)c2cc(Cl)ccc21 (centres unmarked) [Lormetazepam]	1 to 2 mg	0.5-2^ hours	10 to 12 h	–
CN1CCN=C(c2ccccc2)c2cc(Cl)ccc21 [Medazepam]	10 mg	–	36 to 200 h	–
Cc1ncc2n1-c1ccc(Cl)cc1C(c1ccccc1F)=NC2 [Midazolam]	5 to 8 mg	0.5-1^ hours	–	–
CN1C(=O)CN=C(c2ccccc2)c2cc([N+](=O)[O-])ccc21 [Nimetazepam]	5 mg	0.5-3^ hours	14 to 30 h	–
O=C1CN=C(c2ccccc2)c2cc([N+](=O)[O-])ccc2N1 [Nitrazepam]	10 mg	0.5-7^ hours	15 to 38 h	–
O=C1CN=C(c2ccccc2)c2cc(Cl)ccc2N1 [Nordazepam]	10 mg	–	50 to 120 h	–
O=C1Nc2ccc(Cl)cc2C(c2ccccc2)=NC1O (centres unmarked) [Oxazepam]	–	3 to 4 h	4 to 15 h	–
O=C1CN=C(c2ccccc2Cl)c2cc(Br)ccc2N1 [Phenazepam]	1 mg	1.5-4^ hours	60 h	–
C#CCN1C(=O)CN=C(c2ccccc2)c2cc(Cl)ccc21 [Pinazepam]	20 mg	–	40 to 100 h	–
O=C1CN=C(c2ccccc2)c2cc(Cl)ccc2N1CC1CC1 [Prazepam]	20 mg	2 to 6 h	36 to 200 h	–
Cc1c2c(cn1C)NC(=O)CN=C2c1ccccc1 [Premazepam]	3.75 mg	2 to 6 h	10 to 13 h	–
Fc1ccccc1C1=NCC(=S)N(CC(F)(F)F)c2ccc(Cl)cc21 [Quazepam]	20 mg	1 to 5 h	39 to 120 h	–
CN1C(=O)C(O)N=C(c2ccccc2)c2cc(Cl)ccc21 (centres unmarked) [Temazepam]	20 mg	0.5-3^ hours	8 to 22 h	–
CN1C(=O)CN=C(C2=CCCCC2)c2cc(Cl)ccc21 [Tetrazepam]	100 mg	1 to 3 h	3 to 26 h	–
Cc1nnc2n1-c1ccc(Cl)cc1C(c1ccccc1Cl)=NC2 [Triazolam]	0.25 mg	0.5-2^ hours	2 h	–
CCN(C(C)=O)c1cccc(-c2ccnc3c(C#N)cnn23)c1 [Zaleplon]	–	–	–	AED (Approximate Equivalent Dose) (benzodiazepine receptors; [2]): 20 mg
Cc1ccc(-c2nc3ccc(C)cn3c2CC(=O)N(C)C)cc1 [Zolpidem]	–	–	–	AED (Approximate Equivalent Dose) (benzodiazepine receptors; [2]): 20 mg; Elimination ½-Life [1, 2]: 2.6 h
CN1CCN(C(=O)OC2c3nccnc3C(=O)N2c2ccc(Cl)cn2)CC1 (centres unmarked) [Zopiclone]	–	–	–	AED (Approximate Equivalent Dose) (benzodiazepine receptors; [2]): 15 mg; Elimination ½-Life [1, 2]: 4 to 6 h
